US9983218B2, “Indole and indoline derivatives and methods of use thereof” (AbbVie Inc., priority 2008, dated 2018)
Like-named read-outs stand apart in the source and are kept apart here.

Columns and labels:
[1] = test system: primary postnatal (P0) cortical cells; experiment: Neurite outgrowth assay (Aβ1-42-induced reduction of neurite outgrowth, high content microscopy); type: cell-based, rat; conditions: for Emax: Rattus norvegicus, read-out: Maximum Effect (of % 300 nM Dimebolin)
Experimental: In addition to PC12 cells, other cellular model systems may also be used. Rat cortical cells were cultured and prepared for high content microscopy analysis as previously described (Hu, M.; Schurdak, M. E.; et al. High content screen microscopy analysis of Aβ1-42-induced neurite outgrowth reduction in rat primary cortical neurons: Neuroprotective effects of α7 neuronal nicotinic acetylcholine receptor ligands. Brain Res. 2007, 1151, 227-235.). Briefly, cortical cell cultures were plated at density of 5×10^5 cells/mL onto poly-D-lysine coated 96-well plates and maintained in a cell incubator at 37° C. with 5% CO2. Experiments were performed using 6-7 day-old cortical cell cultures by treating with test compounds. In some experiments, the effect of test compounds on reversing Aβ toxicity were also measured (Hu, M.; Schurdak, M. E.; et al. High content screen microscopy analysis of Aβ1-42-induced neurite outgrowth reduction in rat primary cortical neurons: Neuroprotective effects of α7 neuronal nicotinic acetylcholine receptor ligands. Brain Res. 2007, 1151, 227-235.). For assessment of neuroprotective effects, cells were first pretreated with test compounds for about 5 hours. Medium was then replaced with the medium containing freshly prepared about 5 μM Aβ1-42 peptide in the absence or presence of the test compounds for 3 days. The untreated group contained the same percentage of vehicle (DMSO) as in the treatment groups. Cells were fixed with approximately 4% paraformaldehyde containing 0.5% Hoechst 33342 for about 15 minutes, followed by three washes using PBS (pH 7.4) and blocked with 10% donkey serum in PBS for 1 hour at room temperature. The cells were then incubated overnight at about 4° C. with mouse anti-tubulin monoclonal antibody (1:100) for staining neurons and rabbit anti-GFAP (1:1000) for staining glia. In the next day, cells were incubated with FITC-labeled anti-mouse and TRITC-labeled anti-rabbit antibodies (1:1000) for about 1 hour at room temperature. After fixing and staining the cells, nuclei (360/400 nm excitation and 465/300 nm emission filters), neuron (475/350 nm excitation and 535/400 nm emission filters) and glial cell (535 nm excitation and 610 nm emission filters) images were collected using the ImageExpress Micro automatic fluorescent microscopy system (Molecular Devices, Sunnyvale, Calif.) employing a Nikon 10× Plan Fluor objective and Cool Snap HQ CCD camera. The Neurite Outgrowth module in the MetaMorph Imaging software was used to automatically count total cell number, number of neuron cells, and the extent of neurite outgrowth.
In the graph of FIG. 2, 100% response was the response observed for untreated cells. Exposure to Aβ1-42 produced a decrease in neurite outgrowth. Treatment of cells with compounds prior to and concomitantly with Aβ1-42 gave a neuroprotective effect with neurite outgrowth maintained or enhanced relative to untreated cells.

[2] = test system: SK-N-SH human neuroblastoma cells; experiment: Serum deprivation/JC-1 mitochondrial membrane potential (MMP) assay; type: cell-based; conditions: for Emax: SK-N-SH, read-out: JC-1 max %; for EC50: SK-N-SH cells, serum deprivation ~18 hours, JC-1 ratio normalized to peak value for 10 μM dimebolin, single curve fit to mean data of n=2-3, read-out: EC50
Summary of the method: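 Cells were serum-deprived ~18 h in MEM with or without compound (DMSO ≤1%), then stained with JC-1 for 35 min at 37° C. The red/green fluorescence ratio (560/595 vs 485/535 nm) was normalized to the peak response of 10 μM dimebolin. EC50 came from one curve fit to mean data (n=2-3, duplicates).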

[3] = test system: primary rat cortical neurons; conditions: comparable to that evoked by BDNF; cited from earlier work
[4] = test system: Patients with mild-to-moderate Alzheimer's disease; conditions: cited from earlier work
Male Sprague Dawley rats = experiment: Analgesic effect against neuropathic pain (L5/L6 spinal nerve ligation, von Frey filaments); type: in vivo; conditions: rat
Experimental: Animals were prepared for testing, by use of a surgical procedure that induces neuropathic pain in one paw. Male Sprague Dawley rats were purchased from Charles River (Portage, Mich.). Prior to surgery, animals were housed in groups and maintained in a temperature-regulated environment. Following nerve ligation surgery, animals were housed in groups, and had access to food and water ad libitum.
The L5 and L6 spinal nerves of anesthetized rats were tightly ligated in a manner described previously (see Kim and Chung, Pain (1992) vol. 50 pp. 355-363). An incision was made on the dorsal portion of the hip and the muscle was blunt-dissected to reveal the spinal processes. The L6 transverse process was removed, and the left side L5 and L6 spinal nerves were tightly ligated with 5.0 braided silk suture. The wound was cleaned, the membrane sewn with 4.0 dissolvable Vicryl suture and the skin closed with wound clips. The paw affected by the surgical procedure (the left paw) develops an allodynic response, a hypersensitivity to mechanical and other stimuli; neuropathic pain is assessed as an increased sensitivity in the surgically affected (left) allodynic paw compared to the control paw on the right side, and measured by comparing the response of the (left side) allodynic paw to the response of the unaffected right side control paw.
For the assessment of neuropathic pain, mechanical allodynia in the affected paw of animals that had undergone spinal nerve ligation was evaluated using testing with von Frey filaments. As described previously by S. R. Chaplan, et al (“Quantitative assessment of tactile allodynia in the rat paw” J. Neurosci. Meth. (1994) vol. 53 pp. 55-63), two weeks following surgery rats were acclimated to a testing box constructed of plexiglass with a wire mesh floor which allowed access to the plantar surface of the animal's hindpaws. […] The efficacy of the compound in reducing neuropathic pain at different doses was determined by comparing response in the surgery-affected paw versus the response in the control paw. […]

[5] = maximum response relative to 300 nM dimebolin, at the concentration given
[6] = Homo sapiens, percent maximal intensity in JC-1 ratio normalized to 10 μM dimebolin

Row | Structure (SMILES) | Emax [1, 5] | Emax [2, 6] | EC50 ([2]; Homo sapiens) | also measured
1 | O=c1ccnc2ccc(-n3c4c(c5cc(F)ccc53)CN3CCC4CC3)cn12 [Example 261, 7-(9-fluoro-1,3,4,5-tetrahydro-6H-2,5-ethanoazepino[4,3-b]indol-6-yl)-4H-pyrido[1,2-a]pyrimidin-4-one] | 104% | 160% | 5.72 µM | 
2 | c1ccc2c(c1)c1c(n2-c2ccc3ccncc3c2)C[C@H]2CC[C@@H]1N2 (single isomer, unassigned) [Example 279] | 108% | 209% | 5.49 µM | 
3 | c1cnc2ccc(-n3c4c(c5ccccc53)[C@@H]3CC[C@H](C4)N3)cc2c1 [Example 282, (7R,10S)-5-(quinolin-6-yl)-5,6,7,8,9,1-hexahydro-7,10-epiminocyclohepta[b]indole] |  |  |  | Maximum Effect (of % 300 nM Dimebolin) [1, 5]: 115%; Concentration (nM) at which the maximum effect was noted ([1]; test compound concentration giving the maximum response): 30 nM; EC50 [2]: 3.21 µM; JC-1 max % ([2]; percent maximal intensity in JC-1 ratio normalized to 10 μM dimebolin): 228%
4 | Cc1ccc2cc(-n3c4c(c5cc(F)ccc53)CN3CCC4CC3)ccc2n1 [Example 229, 9-fluoro-6-(2-methylquinolin-6-yl)-3,4,5,6-tetrahydro-1H-2,5-ethanoazepino[4,3-b]indole] | 165% | 282% | 0.7 µM | 
5 | O=c1cccnn1-c1ccc(Cn2c3c(c4cc(F)ccc42)CN2CCC3CC2)cn1 [Example 248, 2-{5-[(9-fluoro-1,3,4,5-tetrahydro-6H-2,5-ethanoazepino[4,3-b]indol-6-yl)methyl]pyridin-2-yl}pyridazin-3(2H)-one] | 109% | 110% | 5.24 µM | 
6 | Cc1ccc2c(c1)c1c(n2CCc2ccc(C)nc2)CCN(C)C1 [dimebolin, 2,3,4,5-tetrahydro-2,8-dimethyl-5-[2-(6-methyl-3-pyridinyl)ethyl]-1H-pyrido[4,3-b]indole] |  |  |  | neurite outgrowth [3]: increase neurite outgrowth; clinical course of disease (improvement over baseline for ADAS-Cog) ([4]; 20 mg three times a day (60 mg/day)): significant improvement; most frequent adverse event ([4]; clinical studies of dimebolin): dry mouth
7 | O=c1ccnc2ccc(-n3c4c(c5ccccc53)CN3CCC4CC3)cn12 [Example 277, 7-(1,3,4,5-tetrahydro-6H-2,5-ethanoazepino[4,3-b]indol-6-yl)-4H-pyrido[1,2-a]pyrimidin-4-one] | 91% | 190% | 2.4 µM | 
8 | Cc1ccc2c(c1)c1c(n2CCc2cnc(C)nc2)C[C@H]2CC[C@@H]1N2C [Example 31, (7R,10S)-2,11-dimethyl-5-[2-(2-methylpyrimidin-5-yl)ethyl]-5,6,7,8,9,10-hexahydro-7,10-epiminocyclohepta[b]indole] | 96% | 97% | 6.05 µM | 
9 | Cc1ccc2c(c1)c1c(n2CCc2ccc(C)nc2)C[C@H]2CC[C@@H]1N2 (single isomer, unassigned) [Example 6] | 124% | 163% | 5.79 µM | 
10 | O=c1cnc2ccc(-n3c4c(c5ccccc53)CN3CCC4CC3)cc2[nH]1 [Example 274, 7-(1,3,4,5-tetrahydro-6H-2,5-ethanoazepino[4,3-b]indol-6-yl)quinoxalin-2(1H)-one] | 111% | 235% | 2.27 µM | 
11 | Cc1ccc2c(c1)c1c(n2CCc2ccc(C)nc2)C2CCN(CC2)C1 [Example 2, 9-methyl-6-[2-(6-methylpyridin-3-yl)ethyl]-3,4,5,6-tetrahydro-1H-2,5-ethanoazepino[4,3-b]indole] | 117% |  |  | reduction in mechanical allodynia (Male Sprague Dawley rats; 10 mg/kg intraperitoneal injection, 30 minutes before testing, **p<0.01, ***p<0.001 vs. vehicle, FIG. 6): 58%; adverse effects (Male Sprague Dawley rats; i.p. 1, 3, and 10 mg/kg): No complicating adverse effects were observed; withdrawal threshold for allodynic limb (pressure applied to elicit a pain response) (Male Sprague Dawley rats; intraperitoneally 30 minutes before testing, maximum effect 15 g): concentration-dependent improvement
12 | c1ccc2c(c1)c1c(n2-c2ccc3ccncc3c2)C[C@@H]2CC[C@H]1N2 (single isomer, unassigned) [Example 280] | 107% | 201% | 5.25 µM | 
13 | Cc1ccc2c(c1)c1c(n2CCc2cccc(C(F)(F)F)c2)CC2CCC1N2C (centres unmarked) [Example 50, 2,11-dimethyl-5-{2-[3-(trifluoromethyl)phenyl]ethyl}-5,6,7,8,9,10-hexahydro-7,10-epiminocyclohepta[b]indole] | 101% | 175% | 6.45 µM | 
14 | Fc1ccc2c(c1)c1c(n2Cc2ccc(Br)cc2)C2CCN(CC2)C1 [Example 167, 6-(4-bromobenzyl)-9-fluoro-3,4,5,6-tetrahydro-1H-2,5-ethanoazepino[4,3-b]indole] | 92% | 149% | 4.71 µM | 
15 | Fc1ccc2c(c1)c1c(n2-c2ccc3ncccc3c2)C2CCN(CC2)C1 [Example 228, 9-fluoro-6-quinolin-6-yl-3,4,5,6-tetrahydro-1H-2,5-ethanoazepino[4,3-b]indole] | 141% | 263% | 1.73 µM | 
16 | Fc1ccc2c(c1)c1c(n2-c2cccnc2)C2CCN(CC2)C1 [Example 264, 9-fluoro-6-(pyridin-3-yl)-3,4,5,6-tetrahydro-1H-2,5-ethanoazepino[4,3-b]indole] | 110% | 107% | 7.8 µM | 
